This experiment relates to MV-4-11 cells. The experiment can be described thus: Gene expression microarray analysis (Affymetrix PrimeView) and GSEA. Particulars: MV-4-11 cells, 48 hours. Further details: RFU PODN (11730768_x_at) / Fold change /veh PODN (11730768_x_at) / RFU LINC00158 (11744669_a_at) / Fold change /veh LINC00158 (11744669_a_at) / RFU DUSP10 (11751237_a_at) / Fold change /veh DUSP10 (11751237_a_at) / RFU ID3 (11757404_x_at) / Fold change /veh ID3 (11757404_x_at) / RFU PLEKHG5 (11737974_s_at) / Fold change /veh PLEKHG5 (11737974_s_at) / RFU LRRC4B (11730491_at) / Fold change /veh LRRC4B (11730491_at) / RFU GIMAP4 (11747438_a_at) / Fold change /veh GIMAP4 (11747438_a_at) / RFU KRT8 (11758183_x_at) / Fold change /veh KRT8 (11758183_x_at) / RFU CNN1 (11734310_a_at) / Fold change /veh CNN1 (11734310_a_at) / RFU VPS37D (11726825_at) / Fold change /veh VPS37D (11726825_at) / RFU C10orf10 (11716522_x_at) / Fold change /veh C10orf10 (11716522_x_at) / RFU KIR2DL2 /// KIR2DL4 /// KIR2DL5A /// KIR2DL5B /// KIR2DS1 /// KIR2DS2 /// KIR2DS3 /// KIR2DS4 /// KIR3DL3 /// KIR3DL3 /// KIR3DS1 (11738374_at) / Fold change /veh KIR2DL2 /// KIR2DL4 /// KIR2DL5A /// KIR2DL5B /// KIR2DS1 /// KIR2DS2 /// KIR2DS3 /// KIR2DS4 /// KIR3DL3 /// KIR3DL3 /// KIR3DS1 (11738374_at) / RFU C1QL1 (11718748_at) / Fold change /veh C1QL1 (11718748_at) / RFU TMPRSS4 (11747572_a_at) / Fold change /veh TMPRSS4 (11747572_a_at) / RFU HAMP (11756126_x_at) / Fold change /veh HAMP (11756126_x_at) / RFU RNFT2 (11725882_a_at) / Fold change /veh RNFT2 (11725882_a_at) / RFU NR4A2 (11747474_a_at) / Fold change /veh NR4A2 (11747474_a_at) / RFU ABCC12 (11746883_a_at) / Fold change /veh ABCC12 (11746883_a_at) / RFU TMEM136 (11760407_x_at) / Fold change /veh TMEM136 (11760407_x_at) / RFU CLDN22 /// WWC2 (11732394_at) / Fold change /veh CLDN22 /// WWC2 (11732394_at) / RFU HLA-DPB1 (11760878_x_at) / Fold change /veh HLA-DPB1 (11760878_x_at) / RFU SPINT1 (11716480_a_at) / Fold change /veh SPINT1 (11716480_a_at) / RFU GAP43 (11754022_s_at) / Fold change /veh GAP43 (11754022_s_at) / RFU A4GNT (11735810_at) / Fold change /veh A4GNT (11735810_at) / RFU PRB3 (11715151_x_at) / Fold change /veh PRB3 (11715151_x_at) / RFU TUBB4B (11761932_at) / Fold change /veh TUBB4B (11761932_at) / RFU CAPN14 (11732068_a_at) / Fold change /veh CAPN14 (11732068_a_at) / RFU TMCC2 (11721928_a_at) / Fold change /veh TMCC2 (11721928_a_at) / RFU IRGQ (11745062_a_at) / Fold change /veh IRGQ (11745062_a_at) / RFU FAM174B (11720279_a_at) / Fold change /veh FAM174B (11720279_a_at) / RFU TMPRSS4 (11748680_a_at) / Fold change /veh TMPRSS4 (11748680_a_at) / RFU FAM212B (11763350_a_at) / Fold change /veh FAM212B (11763350_a_at) / RFU PLEKHG5 (11743358_a_at) / Fold change /veh PLEKHG5 (11743358_a_at) / RFU ZSCAN30 (11745921_a_at) / Fold change /veh ZSCAN30 (11745921_a_at) / RFU CMKLR1 (11741424_a_at) / Fold change /veh CMKLR1 (11741424_a_at) / RFU LOC101060620 /// MAPK8IP1 (11723275_at) / Fold change /veh LOC101060620 /// MAPK8IP1 (11723275_at) / RFU SPTSSB (11747773_x_at) / Fold change /veh SPTSSB (11747773_x_at) / RFU PRSS12 (11739890_at) / Fold change /veh PRSS12 (11739890_at) / RFU BIN1 (11741810_x_at) / Fold change /veh BIN1 (11741810_x_at) / RFU WNT11 (11732464_a_at) / Fold change /veh WNT11 (11732464_a_at) / RFU C10orf10 (11716521_a_at) / Fold change /veh C10orf10 (11716521_a_at) / RFU C5orf56 (11738089_at) / Fold change /veh C5orf56 (11738089_at) / RFU CYB561 (11721691_x_at) / Fold change /veh CYB561 (11721691_x_at) / RFU ANKRD19P (11752326_a_at) / Fold change /veh ANKRD19P (11752326_a_at) / RFU OR2T12 /// OR2T33 /// OR2T8 (11738714_s_at) / Fold change /veh OR2T12 /// OR2T33 /// OR2T8 (11738714_s_at) / RFU VCAN (11748164_a_at) / Fold change /veh VCAN (11748164_a_at) / RFU JSRP1 (11732532_at) / Fold change /veh JSRP1 (11732532_at) / RFU KRTAP10-11 (11738290_x_at) / Fold change /veh KRTAP10-11 (11738290_x_at) / RFU MYO3A (11730013_a_at) / Fold change /veh MYO3A (11730013_a_at) / RFU EBF3 (11725865_a_at) / Fold change /veh EBF3 (11725865_a_at) / RFU CAMK2N1 (11719241_x_at) / Fold change /veh CAMK2N1 (11719241_x_at) / RFU C5orf56 (11738088_a_at) / Fold change /veh C5orf56 (11738088_a_at) / RFU OLFML3 (11715873_a_at) / Fold change /veh OLFML3 (11715873_a_at) / RFU LOC100653217 /// NTM (11731650_a_at) / Fold change /veh LOC100653217 /// NTM (11731650_a_at) / RFU MAPK11 (11762145_a_at) / Fold change /veh MAPK11 (11762145_a_at) / RFU FIZ1 (11724087_x_at) / Fold change /veh FIZ1 (11724087_x_at) / RFU OASL (11726364_x_at) / Fold change /veh OASL (11726364_x_at) / RFU SOX15 (11748057_x_at) / Fold change /veh SOX15 (11748057_x_at) / RFU CD79A (11719716_a_at) / Fold change /veh CD79A (11719716_a_at) / RFU HIST1H1D (11736915_at) / Fold change /veh HIST1H1D (11736915_at) / RFU CASKIN2 (11723855_a_at) / Fold change /veh CASKIN2 (11723855_a_at) / RFU LOC730098 (11760151_x_at) / Fold change /veh LOC730098 (11760151_x_at) / RFU OR4N2 (11742367_at) / Fold change /veh OR4N2 (11742367_at) / RFU PRRT2 (11749266_a_at) / Fold change /veh PRRT2 (11749266_a_at) / RFU SNX32 (11753110_a_at) / Fold change /veh SNX32 (11753110_a_at) / RFU CDHR5 (11726645_a_at) / Fold change /veh CDHR5 (11726645_a_at) / RFU RCAN1 (11760418_a_at) / Fold change /veh RCAN1 (11760418_a_at) / RFU FAM167A (11723789_a_at) / Fold change /veh FAM167A (11723789_a_at) / RFU FAM26E (11764081_at) / Fold change /veh FAM26E (11764081_at) / RFU ISYNA1 (11749810_s_at) / Fold change /veh ISYNA1 (11749810_s_at) / RFU ACY1 (11761880_at) / Fold change /veh ACY1 (11761880_at) / RFU 11764098_at / Fold change /veh 11764098_at / RFU SAMD14 (11745864_x_at) / Fold change /veh SAMD14 (11745864_x_at) / RFU NPB (11741838_a_at) / Fold change /veh NPB (11741838_a_at) / RFU TMPRSS6 (11731388_a_at) / Fold change /veh TMPRSS6 (11731388_a_at) / RFU KRTAP10-2 (11738614_at) / Fold change /veh KRTAP10-2 (11738614_at) / RFU ARHGAP8 /// PRR5-ARHGAP8 (11727945_x_at) / Fold change /veh ARHGAP8 /// PRR5-ARHGAP8 (11727945_x_at) / RFU KRTAP5-7 /// NADSYN1 (11734609_at) / Fold change /veh KRTAP5-7 /// NADSYN1 (11734609_at) / RFU RASL12 (11751679_a_at) / Fold change /veh RASL12 (11751679_a_at) / RFU CDKN2B (11736163_a_at) / Fold change /veh CDKN2B (11736163_a_at) / RFU PRF1 (11729649_at) / Fold change /veh PRF1 (11729649_at) / RFU, ZNF638 /// ZNF638-IT1 / Fold change vs veh, ZNF638 /// ZNF638-IT1 / RFU, PANK3 / Fold change vs veh, PANK3 / RFU, SH3YL1 / Fold change vs veh, SH3YL1 / RFU, ZEB2 / Fold change vs veh, ZEB2 / RFU, NRIP1 / Fold change vs veh, NRIP1 / RFU, PTTG1IP / Fold change vs veh, PTTG1IP / RFU, CAPN2 / Fold change vs veh, CAPN2 / RFU, MED14 / Fold change vs veh, MED14 / RFU, SNORA58 / Fold change vs veh, SNORA58 / RFU, C1orf63 / Fold change vs veh, C1orf63 / RFU, LRRFIP1 / Fold change vs veh, LRRFIP1 / RFU, NDUFAF7 / Fold change vs veh, NDUFAF7 / RFU, SLC12A2 / Fold change vs veh, SLC12A2 / RFU, IBTK / Fold change vs veh, IBTK / RFU, ESF1 / Fold change vs veh, ESF1 / Fold change vs veh, TMEM50B / RFU, TAOK1 / Fold change vs veh, TAOK1 / RFU, ACBD3 / Fold change vs veh, ACBD3 / RFU, TMA16 / Fold change vs veh, TMA16 / RFU, RWDD3 / Fold change vs veh, RWDD3 / RFU, BCAT1 / Fold change vs veh, BCAT1 / RFU, EDEM3 / Fold change vs veh, EDEM3 / RFU, TMEM33 / Fold change vs veh, TMEM33 / RFU, WDR75 / Fold change vs veh, WDR75 / RFU, AHCTF1 / Fold change vs veh, AHCTF1 / RFU, TFRC / Fold change vs veh, TFRC / RFU, ZDHHC17 / Fold change vs veh, ZDHHC17 / RFU, NOM1 / Fold change vs veh, NOM1 / RFU, ARL8B / Fold change vs veh, ARL8B / RFU, ZBTB11 / Fold change vs veh, ZBTB11 / RFU, TAMM41 / Fold change vs veh, TAMM41 / RFU, KIAA1704 /// LOC100996395 / Fold change vs veh, KIAA1704 /// LOC100996395 / RFU, ING1 / Fold change vs veh, ING1 / RFU, TRMT61B / Fold change vs veh, TRMT61B / RFU, FUBP3 / Fold change vs veh, FUBP3 / RFU, TP53 / Fold change vs veh, TP53 / RFU, TNKS2 / Fold change vs veh, TNKS2 / RFU, ZFP14 / Fold change vs veh, ZFP14 / RFU, ACTR2 / Fold change vs veh, ACTR2 / RFU, PPP3R1 / Fold change vs veh, PPP3R1 / RFU, PIK3R1 / Fold change vs veh, PIK3R1 / RFU, HNRNPA1 / Fold change vs veh, HNRNPA1 / RFU, RNF170 / Fold change vs veh, RNF170 / RFU, ZNF28 / Fold change vs veh, ZNF28 / RFU, RNGTT / Fold change vs veh, RNGTT / RFU, OGT / Fold change vs veh, OGT / RFU, BRD1 / Fold change vs veh, BRD1 / RFU, MARS / Fold change vs veh, MARS / RFU, ZNF655 / Fold change vs veh, ZNF655 / RFU, FAHD1 / Fold change vs veh, FAHD1 / RFU, BDP1 / Fold change vs veh, BDP1 / RFU, LRRCC1 / Fold change vs veh, LRRCC1 / RFU, ARID1A / Fold change vs veh, ARID1A / RFU, ZNF146 / Fold change vs veh, ZNF146 / RFU, ZNF330 / Fold change vs veh, ZNF330 / RFU, GPN3 / Fold change vs veh, GPN3 / RFU, C9orf123 / Fold change vs veh, C9orf123 / RFU, N4BP2L2 / Fold change vs veh, N4BP2L2 / RFU, ARFIP1 / Fold change vs veh, ARFIP1 / RFU, FAM179B / Fold change vs veh, FAM179B / RFU, BCL10 / Fold change vs veh, BCL10 / RFU, UHRF1BP1L / Fold change vs veh, UHRF1BP1L / RFU, BET1 / Fold change vs veh, BET1 / RFU, CNOT2 / Fold change vs veh, CNOT2 / RFU, ZNF268 / Fold change vs veh, ZNF268 / Fold change vs veh, ZNF507 / RFU, DGCR2 / Fold change vs veh, DGCR2 / RFU, WDSUB1 / Fold change vs veh, WDSUB1 / Fold change vs veh, HSP90B1 /// MIR3652 / RFU, ADSS / Fold change vs veh, ADSS / RFU, GK / Fold change vs veh, GK / RFU, ZNF148 / Fold change vs veh, ZNF148 / RFU, TAF9 / Fold change vs veh, TAF9 / RFU, SLC1A5 / Fold change vs veh, SLC1A5 / RFU, SLMO2 / Fold change vs veh, SLMO2 / RFU, ABCC4 / Fold change vs veh, ABCC4 / RFU, LOC101060439 /// RAP1B / Fold change vs veh, LOC101060439 /// RAP1B / RFU, RFX7 / Fold change vs veh, RFX7 / RFU, GTPBP10 / Fold change vs veh, GTPBP10 / RFU, CNEP1R1 / Fold change vs veh, CNEP1R1 / RFU, BIVM-ERCC5 /// ERCC5 / Fold change vs veh, BIVM-ERCC5 /// ERCC5 / RFU, ILF3 / Fold change vs veh, ILF3 / RFU 11762660_at / Fold change /veh 11762660_at / RFU VCAN (11757783_s_at) / Fold change /veh VCAN (11757783_s_at) / RFU DDX43 (11728927_at) / Fold change /veh DDX43 (11728927_at) / RFU KRT8 (11758188_x_at) / Fold change /veh KRT8 (11758188_x_at) / RFU NKD1 (11759106_at) / Fold change /veh NKD1 (11759106_at) / RFU SRD5A1 (11742802_a_at) / Fold change /veh SRD5A1 (11742802_a_at) / RFU TPSAB1 /// TPSB2 (11721975_s_at) / Fold change /veh TPSAB1 /// TPSB2 (11721975_s_at) / RFU GSTM3 (11746129_a_at) / Fold change /veh GSTM3 (11746129_a_at) / RFU IL23R (11737362_x_at) / Fold change /veh IL23R (11737362_x_at) / RFU TMEM51 (11727254_a_at) / Fold change /veh TMEM51 (11727254_a_at) / RFU PIWIL2 (11732686_x_at) / Fold change /veh PIWIL2 (11732686_x_at) / RFU ORM1 (11744905_x_at) / Fold change /veh ORM1 (11744905_x_at) / RFU CCDC152 (11743942_at) / Fold change /veh CCDC152 (11743942_at) / RFU ECM1 (11717891_a_at) / Fold change /veh ECM1 (11717891_a_at) / RFU IL23R (11748794_a_at) / Fold change /veh IL23R (11748794_a_at) / RFU TNFAIP8L3 (11732012_x_at) / Fold change /veh TNFAIP8L3 (11732012_x_at) / RFU MBOAT4 (11741988_at) / Fold change /veh MBOAT4 (11741988_at) / RFU 11764193_at / Fold change /veh 11764193_at / RFU TMEM53 (11763286_at) / Fold change /veh TMEM53 (11763286_at) / RFU MAGEB2 (11727129_at) / Fold change /veh MAGEB2 (11727129_at) / RFU TMEM200A (11744735_a_at) / Fold change /veh TMEM200A (11744735_a_at) / RFU CCDC152 (11751479_a_at) / Fold change /veh CCDC152 (11751479_a_at) / RFU FAM211A (11726209_a_at) / Fold change /veh FAM211A (11726209_a_at) / RFU RGS16 (11746705_a_at) / Fold change /veh RGS16 (11746705_a_at) / RFU VCAN (11755009_s_at) / Fold change /veh VCAN (11755009_s_at) / RFU RHOB (11743442_s_at) / Fold change /veh RHOB (11743442_s_at) / RFU RGS16 (11720943_a_at) / Fold change /veh RGS16 (11720943_a_at) / RFU RGS16 (11720944_at) / Fold change /veh RGS16 (11720944_at) / RFU, VPS4B / Fold change vs veh, VPS4B / RFU, CREB1 / Fold change vs veh, CREB1 / RFU, DNAJC13 / Fold change vs veh, DNAJC13 / RFU, GNAQ / Fold change vs veh, GNAQ / RFU, CDK5R1 / Fold change vs veh, CDK5R1 / RFU, ZRANB3 / Fold change vs veh, ZRANB3 / RFU, CUL4A / Fold change vs veh, CUL4A / RFU, CCNY / Fold change vs veh, CCNY / RFU, UFL1 / Fold change vs veh, UFL1 / RFU, COG3 / Fold change vs veh, COG3 / RFU, DIAPH2 / Fold change vs veh, DIAPH2 / RFU, SKA2 / Fold change vs veh, SKA2 / RFU, AFF3 / Fold change vs veh, AFF3 / RFU, LMF1 / Fold change vs veh, LMF1 / RFU, IPO11 / Fold change vs veh, IPO11 / RFU, DFFB / Fold change vs veh, DFFB / RFU, FOXP1 / Fold change vs veh, FOXP1 / RFU, CARD8 / Fold change vs veh, CARD8 / RFU, STRN3 / Fold change vs veh, STRN3 / RFU, ADK / Fold change vs veh, ADK / RFU, RASSF2 / Fold change vs veh, RASSF2 / RFU, WIPF1 / Fold change vs veh, WIPF1 / RFU, LARP1B / Fold change vs veh, LARP1B / RFU, RASA1 / Fold change vs veh, RASA1 / RFU, RB1 / Fold change vs veh, RB1 / RFU, PPFIA1 / Fold change vs veh, PPFIA1 / RFU, MAT2A / Fold change vs veh, MAT2A / RFU, CCT5 / Fold change vs veh, CCT5 / RFU, WDR92 / Fold change vs veh, WDR92 / RFU, CUX1 / Fold change vs veh, CUX1 / RFU, TTC7A / Fold change vs veh, TTC7A / RFU, TMEM135 / Fold change vs veh, TMEM135 / RFU, DEPTOR / Fold change vs veh, DEPTOR / RFU, CPM / Fold change vs veh, CPM / RFU, DNAJB6 / Fold change vs veh, DNAJB6 / RFU, CACNA2D3 / Fold change vs veh, CACNA2D3 / RFU, DTX4 / Fold change vs veh, DTX4 / RFU, TFCP2 / Fold change vs veh, TFCP2 / RFU, GMCL1 /// GMCL1P1 / Fold change vs veh, GMCL1 /// GMCL1P1 / RFU, AEBP2 / Fold change vs veh, AEBP2 / RFU, SNHG1 /// SNORD22 /// SNORD25 /// SNORD26 /// SNORD27 /// SNORD28 /// SNORD29 /// SNORD31 / Fold change vs veh, SNHG1 /// SNORD22 /// SNORD25 /// SNORD26 /// SNORD27 /// SNORD28 /// SNORD29 /// SNORD31 / Fold change (Aza/veh), C12orf56 (ProbeSet 11735607_a_at) / Fold change (ACY-1035/veh), C12orf56 (ProbeSet 11735607_a_at) / Fold change (Aza/veh), FGFR1OP (ProbeSet 11751329_s_at) / Fold change (ACY-1035/veh), FGFR1OP (ProbeSet 11751329_s_at) / Fold change (Aza/veh), VPS36 (ProbeSet 11739960_a_at) / Fold change (ACY-1035/veh), VPS36 (ProbeSet 11739960_a_at) / RFU SYPL1 (11715823_x_at) / Fold change /veh SYPL1 (11715823_x_at) / RFU IGFBP7 (11715501_s_at) / Fold change /veh IGFBP7 (11715501_s_at) / RFU REEP3 (11722064_at) / Fold change /veh REEP3 (11722064_at) / RFU IGLL1 (11728026_x_at) / Fold change /veh IGLL1 (11728026_x_at): dose or concentration left out as unconfirmed. In kind it is cell-based, human.

Structures are written as SMILES.

Regarding `Nc1ncn([C@@H]2O[C@H](CO)[C@@H](O)[C@H]2O)c(=O)n1` [azacitidine], the “Fold change /veh RGS16 (11720944_at)” value is listed as 1.54.

Source of the values: PMC5218480 (PLoS ONE, 2017).
